Holding throughout (format): cell-based
Assay [1] deals with T1, human VDR receptor (Homo sapiens, UniProt P11473).
T1 construct: expressed in transfected cells; host or cells: HeLa
T1 sequence (P11473 1-427): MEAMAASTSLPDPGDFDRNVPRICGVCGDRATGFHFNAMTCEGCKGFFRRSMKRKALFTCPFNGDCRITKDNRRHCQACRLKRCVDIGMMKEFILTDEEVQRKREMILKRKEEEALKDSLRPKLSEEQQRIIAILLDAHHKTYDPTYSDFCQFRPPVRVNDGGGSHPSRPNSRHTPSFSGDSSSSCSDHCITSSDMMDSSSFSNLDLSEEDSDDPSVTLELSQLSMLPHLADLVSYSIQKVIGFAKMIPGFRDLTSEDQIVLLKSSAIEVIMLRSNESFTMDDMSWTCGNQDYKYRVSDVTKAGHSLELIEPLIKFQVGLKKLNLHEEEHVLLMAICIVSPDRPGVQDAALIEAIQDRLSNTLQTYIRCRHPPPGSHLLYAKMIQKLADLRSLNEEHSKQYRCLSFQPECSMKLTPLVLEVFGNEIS
The experiment in a line: VDR agonist activity, co-transfection of HeLa cells with human VDR expression vector and reporter plasmid p240Hase-CAT. The note with it: CAT reporter (rat 24-hydroxylase promoter), 18 hours of treatment. The protocol: By way of example, the VDR agonist activity may be tested on the HeLa cell line, by co-transfecting a human VDR receptor expression vector and the reporter plasmid p240Hase-CAT. The agonist activity may also be characterized in this co-transfection system by the determination of the dose necessary to reach 50% of the maximum activity of the product (AC50).
18 hours after co-transfection, the compound to be tested is added to the medium. After 18 hours of treatment, the assay of the CAT activity of the cellular lysates is carried out by an ELISA test (Enzyme Linked Immuno Sorbent Assay, marketed by Roche Molecular Biochemicals). The agonist activity may be characterized in this co-transfection system by determining the dose required to reach 50% of the maximum activity of the compound tested (AC50).

Assay [2] has as its system HL60 cells. The experiment in a line: Activity on the differentiation of HL60 cells (NBT reduction). As to conditions: Homo sapiens, HL-60, 96 h, 4 days of culture, NBT-positive cells counted. An excerpt: The biological properties analogous to vitamin D may also be measured by the capacity of the product to induce differentiation of promyelocytic leukaemia cells HL60. The protocol and the results obtained with the compounds according to the invention are described in Example 6 of the present application.
Calcitriol induces the differentiation of promyelocytic leukaemia cells (HL60) into monocytes/macrophages. This differentiation-inducing effect is a well characterized marker for cellular vitamin D. One of the most important anti-microbial products of macrophages is hydrogen peroxide, which may be analyzed experimentally by the reduction of NBT (Nitroblue Tetrazolium).
The method used is the following: the HL60 cells are inoculated into 6-well plates and then treated immediately with a test compound. After 4 days of culture, the cells are incubated with phorbol TPA ester and NBT for a short period and the differentiated cells, that is to say which are positive to NBT are counted.

Assay [3] deals with normal human keratinocytes. The experiment in a line: Activity on the proliferation of human keratinocytes (BrdU incorporation). As to conditions: Keratinocyte, 120 h, 5 days of culture, read-out: IC50 - proliferation of the KHNs. The protocol:
The biological properties which are similar to vitamin D may also be measured by the capacity of the product to inhibit the proliferation of normal human keratinocytes (NHK in culture). The product is added to NHKs cultured under conditions promoting the proliferative state. The product is left in contact with the cells for 5 days. The number of proliferative cells is measured by incorporation of bromodeoxyuridine (BRdU) into DNA. The protocol for this test and the results obtained with the compounds according to the invention are described in Example 8 of the present application.
The method used is the following: normal human keratinocytes are inoculated at low density into a 24-well plate. After 4 hours, the compounds to be tested are added to the culture medium. After 5 days of culture, the proliferation of the kerátinocytes is determined by incorporating 5-bromo-2′-deoxyuridine (BrdU) into the DNA. The quantity of BrdU incorporated is then measured using the ELISA test (Enzyme Linked Immuno Sorbent Assay, marketed by Roche Molecular Biochemicals).

Usually AC50 stands for the midpoint of the concentration-response curve, whichever way the signal moves. `CCC(O)(CC)COc1ccc(CCCc2ccc(CO)c(CO)c2)cc1C` [Compound of Example 4, (4-{3-(4-(2-Ethyl-2-hydroxy-butoxy)-3-methyl-phenyl]-propyl)-2-hydroxymethyl-phenyl)-methanol] yielded an AC50 in assay [1] of more than 3000 nM.

For the molecule `CCc1cc(CCCc2ccc(CO)c(CO)c2)ccc1OCC(O)(CC)CC` [Compound of Example 3, (4-{3-(3-Ethyl-4-(2-ethyl-2-hydroxy-butoxy)-phenyl]-propyl}-2-hydroxymethyl-phenyl)-methanol], the half-maximal activity concentration (AC50) in assay [1] stood at 1210 nM.

`Cc1cc(CCCc2ccc(CO)c(CO)c2)ccc1OCC(O)C(C)(C)C` (stereo not drawn) [Compound of Example 2, 1-{4-[3-(3,4-Bis-hydroxymethyl-phenyl)-propyl]-2-methyl-phenoxy}-3,3-dimethyl-butan-2-ol]: the AC50 in assay [2] turned out to be 2500 nM; in assay [1], 172 nM. In addition, the IC50 in assay [3] is 140 nM.

For `CCc1cc(CCCc2ccc(CO)c(CO)c2)ccc1OCC(O)C(C)(C)C` (stereo not drawn) [Compound of Example 1, 1-{4-[3-(3,4-Bis-hydroxymethyl-phenyl)-propyl]-2-ethyl-phenoxy}-3,3-dimethyl-butan-2-ol], the AC50 in assay [2] stood at 312 nM; in assay [1], 40 nM. Moreover, in assay [3], the IC50 worked out at 150 nM.

With `C=C1/C(=C\C=C2/CCC[C@]3(C)[C@@H]([C@H](C)CCCC(C)(C)O)CC[C@@H]23)C[C@@H](O)C[C@@H]1O` [Calcitriol, 1,25-dihydroxyvitamin D3, reference compound], the AC50 in assay [2] came to 10.7 nM.

These data come from patent US7312249B2, “Vitamin D analogues” (Galderma Research & Development, priority 2002, dated 2007).
